Assay results reported in patent EP1878743A2, “Urotensin-II agonists and antagonists” (The Administrators of The Tulane Educational Fund, priority 2000, dated 2002).
Bridge positions count the residues as written; N and C are the ends. Square brackets hold non-standard residues; d marks the D form. Ends that are not written are not given here. Peptide text beside a SMILES is read from it. dDip = N[C@@H](C(=O)O)C(c1ccccc1)c1ccccc1; Phe(4-Cl) = N[C@@H](Cc1ccc(Cl)cc1)C(=O)O; Phe(4-F) = N[C@@H](Cc1ccc(F)cc1)C(=O)O; 2Nal = N[C@@H](Cc1ccc2ccccc2c1)C(=O)O; 3Pal = N[C@@H](Cc1cccnc1)C(=O)O; Tle = CC(C)(C)[C@H](N)C(=O)O; Nal = naphthylalanine

T1: U-II receptors (Rattus norvegicus, UniProt P49684)
T1 construct: from tissue; host or cells: rat thoracic aorta (circular strips / rings)
T1 sequence (P49684 1-386): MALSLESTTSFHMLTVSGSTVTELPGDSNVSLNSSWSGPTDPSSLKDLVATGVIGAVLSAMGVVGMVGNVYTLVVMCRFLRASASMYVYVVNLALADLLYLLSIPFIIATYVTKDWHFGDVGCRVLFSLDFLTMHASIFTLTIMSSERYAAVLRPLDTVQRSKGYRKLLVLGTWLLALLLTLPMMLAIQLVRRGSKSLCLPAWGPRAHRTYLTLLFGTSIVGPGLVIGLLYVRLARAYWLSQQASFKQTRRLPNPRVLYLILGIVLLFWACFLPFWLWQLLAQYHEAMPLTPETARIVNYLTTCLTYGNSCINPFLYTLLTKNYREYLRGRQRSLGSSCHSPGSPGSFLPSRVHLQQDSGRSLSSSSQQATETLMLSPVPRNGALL

T2: U-II receptors (rat thoracic aorta tissue) (rat, UniProt P49684 1-386)
T2 sequence (looked up): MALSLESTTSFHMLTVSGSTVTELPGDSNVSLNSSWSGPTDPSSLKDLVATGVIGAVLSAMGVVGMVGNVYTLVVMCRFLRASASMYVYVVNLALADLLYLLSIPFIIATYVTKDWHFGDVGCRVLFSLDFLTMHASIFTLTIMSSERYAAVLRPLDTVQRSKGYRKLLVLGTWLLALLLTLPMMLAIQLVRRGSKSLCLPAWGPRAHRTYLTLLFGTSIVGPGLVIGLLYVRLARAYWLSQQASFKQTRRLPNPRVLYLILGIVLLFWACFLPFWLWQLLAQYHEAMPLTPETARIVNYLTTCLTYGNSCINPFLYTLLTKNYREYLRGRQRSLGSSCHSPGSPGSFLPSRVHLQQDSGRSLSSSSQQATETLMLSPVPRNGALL

B1: Nal-D-Cys-His-D-Trp-Lys-Val-Cys-D-Dip-NH2 (SEQ ID NO: 6) (peptide)
peptide: [Nal][dC]H[dW]KVC[dDip]-NH2
modifications: disulfide 2-7 (inferred)
B2: 4Fpa-D-Cys-Pal-D-Trp-Lys-Val-Cys-Nal-NH2 (SEQ ID NO: 7) (peptide)
peptide: [Phe(4-F)][dC][3Pal][dW]KVC[Nal]-NH2
modifications: disulfide 2-7 (inferred)
B3: 4Fpa-D-Cys-Pal-D-Trp-Lys-Tle-Cys-Nal-NH2 (SEQ ID NO: 8) (peptide)
peptide: [Phe(4-F)][dC][3Pal][dW]K[Tle]C[Nal]-NH2
modifications: disulfide 2-7 (inferred)
B4: Cpa-D-Cys-Tyr-D-Trp-Lys-Thr-Cys-Nal-NH2 (SEQ ID NO: 9) (peptide)
peptide: XXYXKTCX
modifications: Cpa (p-chlorophenylalanine) at 1; D-Cys at 2; D-Trp at 4; Nal (naphthylalanine) at 8; C-terminal amide
B5: Cpa-D-Cys-Pal-D-Trp-Lys-Tie-Cys-Nal-NH2 (SEQ ID NO: 10) (peptide)
peptide: [Phe(4-Cl)][dC][3Pal][dW]K[Tle]C[Nal]-NH2
modifications: disulfide 2-7 (inferred)
B6: Cpa-D-Cys-Pal-Trp-Lys-Thr-Cys-Cpa-NH2 (SEQ ID NO: 11) (peptide)
peptide: [Phe(4-Cl)][dC][3Pal]WKTC[Phe(4-Cl)]-NH2
modifications: disulfide 2-7 (inferred)
B7: Cpa-c[D-Cys-Phe-Trp-Lys-Thr-Cys]-Val-NH2 (SEQ ID NO: 5) (peptide)
peptide: [Phe(4-Cl)][dC]FWKTCV-NH2
modifications: disulfide 2-7 (inferred)

target: T1, U-II receptors; test: Binding to U-II receptors (rat aorta tissue); conditions: unit inferred

Q: With `CC(C)[C@@H]1NC(=O)[C@H](CCCCN)NC(=O)[C@@H](Cc2c[nH]c3ccccc23)NC(=O)[C@H](Cc2cccnc2)NC(=O)[C@H](NC(=O)[C@@H](N)Cc2ccc(Cl)cc2)CSSC[C@@H](C(=O)N[C@@H](Cc2ccc(Cl)cc2)C(N)=O)NC1=O` [Cpa-c[D-Cys-Pal-D-Trp-Lys-Val-Cys]-Cpa-amide] (H-[Phe(4-Cl)][dC][3Pal][dW]KVC[Phe(4-Cl)]-NH2; disulfide 2-7) as the molecule, how does the Kd read?
A: 240 nM

target: T2, U-II receptors (rat thoracic aorta …); test: cell-based or functional assay; conditions: not given

Q: Which “IC50 (nM) against U-II Stimulation of Rat Aorta Phasic Contractions” value (“IC50 (nM) against U-II Stimulation” for short) does the source give for B1 here?
A: 1800 nM

Q: For B2, which “IC50 (nM) against U-II Stimulation” value is on record?
A: 1090 nM

Q: B3 was tested. Which “IC50 (nM) against U-II Stimulation” value did it give?
A: 100 nM

Q: With B4 as the molecule, how does the “IC50 (nM) against U-II Stimulation” value read?
A: 12 nM

Q: Which “IC50 (nM) against U-II Stimulation” value does the source give for B5 here?
A: 10 nM

Q: How did the “IC50 (nM) against U-II Stimulation” value turn out when B6 was run?
A: 2 nM

target: T2, U-II receptors (rat thoracic aorta …); test: cell-based or functional assay; conditions: not given; remark: another data set of the same source

Q: For B7, which “IC50 against U-II-induced phasic contractions of circular rat thoracic aorta strips” value is on record?
A: 2 nM

target: U-II receptors (rat thoracic aorta tissue) (rat) (UniProt P49684); test: cell-based or functional assay; conditions: not given

Q: “Cpa-c[D-Cys-Pal-D-Trp-Lys-Val-Cys]-Cpa-amide (SEQ ID NO: 4) (peptide)” was tested. Which IC50 against U-II-induced phasic contractions of circular rat thoracic aorta strips did it give?
A: 100 nM

system: U-II Stimulation of Rat Aorta Phasic Contractions; test: not given; conditions: not given
Method: Example 2: Use of Rat Aorta Circular Strip for Assay U-II Antagonists
Male Sprague-Dawley rats (250-350 g), which had been quarantined for 5-7 days prior to the experiments, were sacrificed by decapitation (experiments were approved by the Advisory Committee For Animal Resources, Tulane University School of Medicine). The thoracic aorta was dissected, freed from connective tissue, and cut into rings of about 1.5 mm in width. The rings were suspended in a 15 ml organ bath containing high potassium Kreb's solution (9.15 g/L potassium chloride, 2.1 g/L sodium bicarbonate, 1.0 g/L glucose, 0.16 g/L potassium phosphate monobasic. 0.14 g/L magnesium sulfate (anhydr.), and 0.22 g/L calcium chloride (dihydr.))
Optimal tension was applied (0.2 g) to the tissues and the bath medium was maintained at 37°C and bubbled with a mixture of 95% O2/5% CO2. Prior to mounting in the organ bath, selected preparations were rubbed with a moistened cotton wool swab, in order to remove the endothelial cell layer, and the effect of this procedure was tested using an acetylcholine-relaxation test. (Gibson, A., Br. J. Pharmacol. 91:205 (1987)). The aorta rings were allowed to equilibrate for 90 min. at the optimal tensions. During the equilibration period, the bath solution was replaced every 15 min. Contractile responses of aortae rings to various concentrations of peptides were expressed in volts. Changes in arterial smooth muscle tension were recorded isometrically using a force-displacement transducer (Radnoti), and a AcqKnowledge ACK100 Version 3.2 (BIOPAC Systems, Inc., Santa Barbara, CA.)
In siliconized glass tubes, peptides were dissolved in dionized water at a concentration of 1 µg/1µL (stock solution) and then diluted 1:10 with sterile BSA-saline solution (0.1% BSA, fraction V, Sigma, St. Louis in 0.9% NaCl). All peptide solutions were prepared fresh directly before the experiments. Peptides in the concentration ranges of 10^-6 to 10^-12 M/L in a final volume of 16-80 µL were direcly introduced into the tested organ bath containing Krebs buffer continuously gassed with 95% O, and 5% CO2, and the aorta rings at an optimal resting tension (1 - 0.2g). Peptide-induced changes in tension of the aorta rings were recorded by force-displacement transducers and processed by the computer system BIOPAC Inc., as described above. Each ring was exposed to one peptide concentration only.
Various somatostatin (SRIF) antagonists were discovered to have the ability to block UII-induced phase contractions in the circular rat thoracic aorta strips. […] The polypeptide Cpa-c[D-Cys-Phe-Trp-Lys-Thr-Cys]-ValNH2 was also a strong U-II antagonist with an IC50 of 2nM. Table 1. SRIF Antagonist IC50s (nM) against U-II Stimulation of Rat Aorta Phasic Contractions

Q: Which IC50 does the source give for `CC(C)(C)[C@@H]1NC(=O)[C@H](CCCCN)NC(=O)[C@@H](Cc2c[nH]c3ccccc23)NC(=O)[C@H](Cc2cccnc2)NC(=O)[C@H](NC(=O)[C@@H](N)Cc2ccc(F)cc2)CSSC[C@@H](C(=O)N[C@@H](Cc2ccc3ccccc3c2)C(N)=O)NC1=O` [4Fpa-D-Cys-Pal-D-Trp-Lys-Tle-Cys-Nal-NH2] (H-[Phe(4-F)][dC][3Pal][dW]K[Tle]C[2Nal]-NH2; disulfide 2-7; N-terminus assumed) here?
A: 100 nM

Q: Which IC50 does the source give for `CC(C)[C@@H]1NC(=O)[C@H](CCCCN)NC(=O)[C@@H](Cc2c[nH]c3ccccc23)NC(=O)[C@H](Cc2cccnc2)NC(=O)[C@H](NC(=O)[C@@H](N)Cc2ccc(F)cc2)CSSC[C@@H](C(=O)N[C@@H](Cc2ccc3ccccc3c2)C(N)=O)NC1=O` [4Fpa-D-Cys-Pal-D-Trp-Lys-Val-Cys-Nal-NH2] (H-[Phe(4-F)][dC][3Pal][dW]KVC[2Nal]-NH2; disulfide 2-7; N-terminus assumed) here?
A: 1090 nM

Q: With `CC(C)(C)[C@@H]1NC(=O)[C@H](CCCCN)NC(=O)[C@@H](Cc2c[nH]c3ccccc23)NC(=O)[C@H](Cc2cccnc2)NC(=O)[C@H](NC(=O)[C@@H](N)Cc2ccc(Cl)cc2)CSSC[C@@H](C(=O)N[C@@H](Cc2ccc3ccccc3c2)C(N)=O)NC1=O` [Cpa-D-Cys-Pal-D-Trp-Lys-Tie-Cys-Nal-NH2] (H-[Phe(4-Cl)][dC][3Pal][dW]K[Tle]C[2Nal]-NH2; disulfide 2-7; N-terminus assumed) as the molecule, how does the IC50 read?
A: 10 nM

Q: Which IC50 does the source give for `C[C@@H](O)[C@@H]1NC(=O)[C@H](CCCCN)NC(=O)[C@H](Cc2c[nH]c3ccccc23)NC(=O)[C@H](Cc2cccnc2)NC(=O)[C@H](NC(=O)[C@@H](N)Cc2ccc(Cl)cc2)CSSC[C@@H](C(=O)N[C@@H](Cc2ccc(Cl)cc2)C(N)=O)NC1=O` [Cpa-D-Cys-Pal-Trp-Lys-Thr-Cys-Cpa-NH2] here?
A: 2 nM

Q: With `C[C@@H](O)[C@@H]1NC(=O)[C@H](CCCCN)NC(=O)[C@@H](Cc2c[nH]c3ccccc23)NC(=O)[C@H](Cc2ccc(O)cc2)NC(=O)[C@H](NC(=O)[C@@H](N)Cc2ccc(Cl)cc2)CSSC[C@@H](C(=O)N[C@@H](Cc2ccc3ccccc3c2)C(N)=O)NC1=O` [Cpa-D-Cys-Tyr-D-Trp-Lys-Thr-Cys-Nal-NH2] (H-[Phe(4-Cl)][dC]Y[dW]KTC[2Nal]-NH2; disulfide 2-7; N-terminus assumed) as the molecule, how does the IC50 read?
A: 12 nM

Q: Which IC50 does the source give for `CC(C)[C@@H]1NC(=O)[C@H](CCCCN)NC(=O)[C@@H](Cc2c[nH]c3ccccc23)NC(=O)[C@H](Cc2cccnc2)NC(=O)[C@H](NC(=O)[C@@H](N)Cc2ccc(Cl)cc2)CSSC[C@@H](C(=O)N[C@@H](Cc2ccc(Cl)cc2)C(N)=O)NC1=O` [Cpa-c[D-Cys-Pal-D-Trp-Lys-Val-Cys]-Cpa-amide] (H-[Phe(4-Cl)][dC][3Pal][dW]KVC[Phe(4-Cl)]-NH2; disulfide 2-7) here?
A: ~100 nM

Q: How did the IC50 turn out when `CC(C)[C@@H]1NC(=O)[C@H](CCCCN)NC(=O)[C@@H](Cc2c[nH]c3ccccc23)NC(=O)[C@H](Cc2c[nH]cn2)NC(=O)[C@H](NC(=O)[C@@H](N)Cc2ccc3ccccc3c2)CSSC[C@@H](C(=O)N[C@@H](C(N)=O)C(c2ccccc2)c2ccccc2)NC1=O` [Nal-D-Cys-His-D-Trp-Lys-Val-Cys-D-Dip-NH2] (H-[2Nal][dC]H[dW]KVC[dDip]-NH2; disulfide 2-7; N-terminus assumed) was run?
A: 1800 nM
